The source of these data is paper PMC8196871, “Molecular Imaging and Preclinical Studies of Radiolabeled Long-Term RGD Peptides in U-87 MG Tumor-Bearing Mice” (International Journal of Molecular Sciences, 2021).

In one data set the test system is U-87 MG cells. In kind it is binding, human. As to conditions: 4 h. Here is the method: As the concentration of unlabeled DOTA-EB-cRGDfK or DOTA-cRGDfK increased, the binding ratio of ^111In-DOTA-EB-cRGDfK decreased, indicating the presence of specific binding affinity (Figure 2C).
U-87 MG cells were seeded into 24-well plates at a density of 1 × 10^5 cells per well and incubated overnight. Different concentrations ranging from 0.01 nM to 5000 nM of DOTA-EB-cRGDfK or DOTA-cRGDfK were added to the wells. U-87 MG cells were then incubated with 10 nM ^111In-DOTA-EB-cRGDfK for 4 h at 37 °C. Cells were washed once with 0.5 mL PBS and were removed from each well by 0.25% trypsin-EDTA (Gibco, Gaithersburg, MD, USA). The cell suspensions were collected and measured by using a PerkinElmer 2480 Automatic Gamma Counter (PerkinElmer, Waltham, MA, USA). Binding results were expressed as a percent of total counts, and IC50 values were calculated using SigmaPlot 12.5 (Systat Software, Inc., San Jose, CA, USA).

For data set [1] the following is noted: mouse, in vivo, iv.
Procedure: Blood samples (10 μL) were collected by heart puncture under 2% isoflurane anesthesia at 0.083, 0.5, 2, 4, 24, 48, 72, 96, and 168 h. The radioactivity of blood samples was measured by PerkinElmer 2480 gamma counter and expressed as the percentage injected dose per gram (% ID/g). Data was used to determine the pharmacokinetic parameters by noncompartmental analysis (NCA) and the analysis software was WinNonlin 7.0 (Pharsight Corporation, Mountain View, CA, USA). Parameters, including terminal half-life (T1/2λz), maximum concentration (Cmax), total body clearance (Cl), area under curve (AUC), and mean residence time (MRT) were determined. Pharmacokinetic parameters associated with the terminal phase were calculated using the best-fit method to estimate the terminal half-life.
Data set [2] can be described thus: NanoSPECT/CT imaging with image quantification. The class given is in vivo. As to conditions: female, NOD/SCID, mouse, tumor, iv, 2.5 ug, total radioactivity; 0.5 h after tail-vein injection (about 18.5 MBq, 2.5 μg); U-87 MG xenografts in mice; nanoSPECT/CT ROI. Here is the method: Figure 3 presented nanoSPECT/CT images of U-87 MG xenografts in mice administered with different radiolabeled peptides. […] Comparing with ^111In-DOTA-EB-cRGDfK, the highest tumor uptake of ^111In-DOTA-cRGDfK was 2.0 ± 0.5% ID/g at 0.5 h. […] The ratios of tumor to muscle and tumor to liver were 1.8 ± 0.7 and 0.5 ± 0.1 at 0.5 h, respectively. The highest tumor uptake of ^111In-DOTA-EB was 10.3 ± 4.4% ID/g at 24 h, and it slightly dropped to 9.97 ± 4.37% ID/g at 72 h.
The human glioblastoma cell line, U-87 MG (stock number: BCRC 60360), was obtained from Bioresource Collection and Research Center. Cells were grown in Minimum Essential Medium (MEM; Gibco, Grand Island, NY, USA) supplemented with 10% (v/v) fetal bovine serum (FBS; Gibco, Gaithersburg, MD, USA) and 1% antibiotic antimycotic solution (Sigma-Aldrich, St. Louis, MO, USA) at 37 °C under 5% CO2 incubation. Female non-obese diabetic, severe combined immunodeficiency (NOD/SCID) mice were obtained from BioLASCO Taiwan Co., Ltd. The 6-week-old mice were housed in a 12 h light cycle at 22 °C, with food and water provided ad libitum. […]
The procedure for nanoSPECT/CT imaging has been previously described. […] The image quantification of the region of interest (ROI) was acquired by PMOD v. […]

A further data set deals with tumor. Further details: method as in PMID 25621196. As to conditions: cited from earlier work.

Broadly, the IC50 is the concentration at which inhibition is half-maximal. A low value points to greater potency in that assay. Turning to `N=C(N)NCCC[C@@H]1NC(=O)[C@H](CCCCNC(=O)CN2CCN(CC(=O)O)CCN(CC(=O)O)CCN(CC(=O)O)CC2)NC(=O)[C@@H](Cc2ccccc2)NC(=O)[C@H](CC(=O)O)NC(=O)CNC1=O` [DOTA-cRGDfK], the IC50 with U-87 MG cells was 35.2 nM.

As a reminder, the tissue uptake is the percentage of the injected dose found per gram of tissue. With `N=C(N)NCCC[C@@H]1NC(=O)[C@H](CCCCNC(=O)CN2CCN(CC(=O)O)CCN(CC(=O)O)CCN(CC(=O)O)CC2)NC(=O)[C@@H](Cc2ccccc2)NC(=O)[C@H](CC(=O)O)NC(=O)CNC1=O` [^111In-DOTA-cRGDfK, metal not drawn], in data set [1], the “Cl (total body clearance)” value was determined as 12.9 mL/h, the “Maximum concentration (Cmax) in blood” value was 3.74 % ID/g and the “T1/2λz (terminal half-life)” value was determined as 17.2 h. In addition, the tissue uptake at 0.5 h in data set [2] amounted to 2 ± 0.5 %ID/g.

On to `N[C@@H](Cc1ccc(B(O)O)cc1[18F])C(=O)O` [^18F-BPA], for which the Tumor uptake in the data set with tumor is on record as 1.44 ± 0.44 % ID/g.
